Patent US20050130134A1, “Means and methods for monitoring non-nucleoside reverse transcriptase inhibitor antiretroviral therapy and guiding therapeutic decisions in the treatment HIV-AIDS” (ViroLogic, Inc., priority 2000, published 2005)
“Also recorded” adds a separate entry of the source.

Assays:
[1] = test system: RTV-302 patient virus (RT K103N, I135M, T200A, P225H); assay: Phenotypic susceptibility assay, RTV-302 (patient 97-302); type: cell-based, HIV-1
Protocol: (§1) Transfections were performed using a calcium-phosphate precipitation procedure. […] Cell lysates were assayed for luciferase activity (FIG. 3). […] The drug inhibition curves are shown in (FIG. 3).
This patient had been treated with d4T, indinavir and DMP-266 for a period of approximately 10 months. […] An IC50 was determined for each drug tested. Susceptibility of the patient virus to each drug was examined and compared to known patterns of susceptibility. […] Patient sample 97-302 was examined further for genotypic changes associated with the observed pattern of susceptibility.

[2] = test system: RTV-644 patient virus (RT K101E, G190S); assay: Phenotypic susceptibility assay, RTV-644 (patient 97-644 / 98-644); type: cell-based, HIV-1; conditions: for decrease in susceptibility: RTV-644 patient virus; for change in susceptibility / resistance: RTV-644 patient virus compared to reference virus
Protocol: (§2) Resistance tests were carried out with resistance test vectors using two host cell types. Resistance test vector viral particles were produced by a first host cell (the resistance test vector host cell) that was prepared by transfecting a packaging host cell with the resistance test vector and the packaging expression vector. The resistance test vector viral particles were then used to infect a second host cell (the target host cell) in which the expression of the indicator gene is measured.
(§3) The resistance test vectors containing a functional luciferase gene cassette were constructed and host cells were transfected with the resistance test vector DNA. The resistant test vectors contained patient-derived reverse transcriptase and protease sequences that were either susceptible or resistant to the antiretroviral agents, such as nucleoside reverse transcriptase inhibitors, non-nucleoside reverse transcriptase inhibitors and protease inhibitors. The resistance test vector viral particles produced by transfecting the resistance test vector DNA into host cells, either in the presence or absence of protease inhibitors, were used to infect target host cells grown either in the absence of NRTI or NNRTI or in the presence of increasing concentrations of the drug. The amount of luciferase activity produced in infected target host cells in the presence of drug was compared to the amount of luciferase produced in infected target host cells in the absence of drug. Drug resistance was measured as the amount of drug required to inhibit by 50% the luciferase activity detected in the absence of drug (inhibitory concentration 50%, IC50). The IC50 values were determined by plotting percent drug inhibition vs. log10 drug concentration.
(§4) Host cells were seeded in 10-cm-diameter dishes and were transfected several days after plating with resistance test vector plasmid DNA and the envelope expression vector. Transfections were performed using a calcium-phosphate precipitation procedure. The cell culture media containing the DNA precipitate was replaced with fresh medium, from one to 24 hours, after transfection. […] HIV capsid protein (p24) levels in the harvested cell culture media were determined by an EIA method as described by the manufacturer (SIAC; Frederick, Md.). […] The inhibitory effect of the drug was determined using the following equation: % luciferase inhibition=1-(RLUluc[drug]÷RLUluc)×100 where RLUluc [drug] is the relative light unit of luciferase activity in infected cells in the presence of drug and RLUluc is the Relative Light Unit of luciferase activity in infected cells in the absence of drug. […]

[3] = test system: RTV-300 patient virus (RT K32N, M184V, Y188L); assay: Phenotypic susceptibility assay, RTV-300 (patient 97-300); type: cell-based, HIV-1
Protocol: as §1
This patient had been previously treated with d4T and 3TC (NRTIs), indinavir (a PR1) and efavirenz (an NNRTI).

[4] = test system: RTV-209 patient virus (RT E138A, Y188L); assay: Phenotypic susceptibility assay, RTV-209 (patient 97-209); type: cell-based, HIV-1
Protocol: as §1
This patient had been previously treated with AZT, ddI, d4T and 3TC (NRTIs), indinavir (a PRIs) and adefovir. […].

[5] = test system: HIV reverse transcriptase K103N + Y181C double mutant; conditions: K103N + Y181C double mutant compared to single mutants, FIG. 5
Protocol: as §2, §3
(§5) Host cells were seeded in 10-cm-diameter dishes and were transfected several days after plating with resistance test vector plasmid DNA and the envelope expression vector. Transfections were performed using a calcium-phosphate precipitation procedure. The cell culture media containing the DNA precipitate was replaced with fresh medium, from one to 24 hours, after transfection. Cell culture media containing resistance test vector viral particles was harvested one to four days after transfection and was passed through a […] filter before being stored at −80° C. HIV capsid protein (p24) levels in the harvested cell culture media were determined by an EIA method as described by the manufacturer (SIAC; Frederick, Md.). Before infection, target cells (293 and 293/T) were plated in cell culture media. Control infections were performed using cell culture media from mock transfections (no DNA) or transfections containing the resistance test vector plasmid DNA without the envelope expression plasmid. One to three or more days after infection the media was removed and cell lysis buffer (Promega) was added to each well. […] The inhibitory effect of the drug was determined using the following equation: % luciferase inhibition=1-(RLUluc[drug]÷RLUluc)×100 where RLUluc [drug] is the relative light unit of luciferase activity in infected cells in the presence of drug and RLUluc is the Relative Light Unit of luciferase activity in infected cells in the absence of drug. IC50 values were obtained from the sigmoidal curves that were generated from the data by plotting the percent inhibition of luciferase activity vs. the log10 drug concentration.

[6] = test system: RTV-652 patient virus (RT V108I); conditions: >1 decrease, <1 increased susceptibility
Protocol: as §2, §3, §5

[7] = test system: RTV-675 patient virus (RT A98G); conditions: >1 decreased susceptibility
Protocol: as §2, §3, §5

[8] = test system: patient 302 virus clones K103N, P225H versus K103N, I135M, R211K; conditions: patient 302 clones with versus without P225H, FIG. 8C
Protocol: as §2, §3, §5

[9] = test system: patient 487 virus (RT M184V, K103N); conditions: FIG. 4
Protocol: as §2, §3, §5

[10] = test system: RTV-955 patient virus (RT K101E, K103N, Y181C, G190A mixtures); assay: Phenotypic susceptibility assay, RTV-955 (patient 98-955); type: cell-based, HIV-1
Protocol: as §1
This patient had been previously treated with nelfinavir (a PR1).

[11] = test system: RTV-1058 clone 4 (RT K103N, Y188L); assay: Phenotypic susceptibility assay, RTV-1058 clone 4; type: cell-based, HIV-1
Protocol: as §1

[12] = test system: patient 780 virus (RT K103N, P225H); assay: Phenotypic susceptibility assay, patient 780 (FIG. 8B); type: cell-based, HIV
Protocol: Phenotypic Drug Susceptibility and Resistance Profile: Patients 780. This is a second example of the third pattern of NNRTI susceptibility/resistance.
as §1

[13] = test system: HIV-1 reverse transcriptase E138A (E138A-RTV); assay: Phenotypic susceptibility assay, site directed mutant E138A-RTV; type: cell-based; conditions: >1 loss of susceptibility
Protocol: as §2
as §3, with “The amount of luciferase activity produced in infected target host cells in the presence of drug was compared to the amount of luciferase produced in infected target host cells in the absence of drug. Drug resistance was measured as the amount of drug required to inhibit by 50% the luciferase activity detected in the absence of drug (inhibitory concentration 50%, IC50).” left out
as §4, with “vector.” for “vector. Transfections were performed using a calcium-phosphate precipitation procedure. The cell culture media containing the DNA precipitate was replaced with fresh medium, from one to 24 hours, after transfection.”

[14] = test system: HIV reverse transcriptase mutation at codon 230 alone or in combination with codon 181; assay: Phenotypic susceptibility assay, mutation at codon 230 alone or with codon 181; type: cell-based
[15] = molecular target: RT with P236L substitution (Human immunodeficiency virus type 1 group M subtype B, UniProt P04585, P823L); conditions: cited from earlier work; for previously reported effect of the P236L mutation: Dueweke et al. 1993

Structure (SMILES) | change in susceptibility [1] | decrease in susceptibility [2] [fold] | change in susceptibility / resistance [2] | decrease in susceptibility [3] | decrease in susceptibility [4] | resistance profile [5] | fold change in susceptibility [6] [fold] | fold change in susceptibility [7] [fold] | effect of P225H on resistance associated with K103N [8] | resistance profile [9] | decrease in susceptibility [10] [fold] | loss of susceptibility [11] | change in susceptibility [12] | fold change in susceptibility compared to wild type control RTV [13] [fold] | change in susceptibility [14] | reduction of IC50 ([15]; P236L substitution) [fold] | previously reported effect of the P236L mutation [15]
Cc1ccnc2c1NC(=O)c1cccnc1N2C1CC1 [nevirapine] | significant decrease; also recorded: reduced susceptibility | 600 | resistant; also recorded: large reduction in susceptibility | greater than 800 fold | greater than 800 fold | further increase in resistance | 5 | 6 | does not alter the amount of nevirapine resistance | increased resistance | 530 | greater than 800 fold | reduced susceptibility | 1.3 | significant decrease | 7 to 10 | nevirapine hypersensitivity
CC(C)Nc1cccnc1N1CCN(C(=O)c2cc3cc(NS(C)(=O)=O)ccc3[nH]2)CC1 [delavirdine] | modest decrease; also recorded: reduced susceptibility | 2.5 | little or no resistance | 25 fold | 75 fold | further increase in resistance | 0.97 | 2.1 | reduces the amount delavirdine resistance | increased resistance | 4 | 85 fold | reduced susceptibility | 1.6 | significant decrease |  | delavirdine resistance
O=C1Nc2ccc(Cl)cc2[C@@](C#CC2CC2)(C(F)(F)F)O1 [efavirenz] |  |  |  |  |  |  |  |  |  |  |  |  |  | 1.4 |  |  | 
